The test deals with SHP2 (Homo sapiens (Human), UniProt Q06124). The test is described as follows: SHP2 allosteric inhibition assay (DiFMUP prompt fluorescence). Format: biochemical. The settings on record: 0.2 nM SHP2 activated with 0.5 μM Activating Peptide 1 or 2; substrate DiFMUP; Table 2, class symbols. The text has this:
Without wishing to be bound by theory, SHP2 is allosterically activated through binding of bis-tyrosyl-phosphorylated peptides to its Src Homology 2 (SH2) domains. The latter activation step leads to the release of the auto-inhibitory interface of SHP2, which in turn renders the SHP2 protein tyrosine phosphatase (PTP) active and available for substrate recognition and reaction catalysis. The catalytic activity of SHP2 was monitored using the surrogate substrate DiFMUP in a prompt fluorescence assay format.
The phosphatase reactions were performed at room temperature in 96-well black polystyrene plate, flat bottom, non-binding surface (Corning, Cat #3650) using a final reaction volume of 100 μL and the following assay buffer conditions: 50 mM HEPES, pH 7.2, 100 mM NaCl, 0.5 mM EDTA, 0.05% P-20, 1 mM DTT.
The inhibition of SHP2 by compounds of the invention (concentrations varying from 0.00005-10 μM) was monitored using an assay in which 0.2 nM of SHP2 was incubated with 0.5 μM of Activating Peptide 1 (sequence: H2N-LN(pY)IDLDLV(dPEG8)LST(pY)ASINFQK-amide) or Activating Peptide 2 (sequence: H2N-LN(pY)AQLWHA(dPEG8)LTI(pY)ATIRRF-amide). After 30-60-minutes incubation at 25° C., the surrogate substrate DiFMUP (Invitrogen, Cat #D6567) was added to the reaction and activity was determined by a kinetic read using a microplate reader (Envision, Perkin-Elmer or Spectramax M5, Molecular Devices). The excitation and emission wavelengths were 340 nm and 450 nm, respectively. Initial rates were determined from a linear fit of the data, and the inhibitor dose response curves were analyzed using normalized IC50 regression curve fitting with control based normalization.
SHP2, sequence (Q06124 whole entry): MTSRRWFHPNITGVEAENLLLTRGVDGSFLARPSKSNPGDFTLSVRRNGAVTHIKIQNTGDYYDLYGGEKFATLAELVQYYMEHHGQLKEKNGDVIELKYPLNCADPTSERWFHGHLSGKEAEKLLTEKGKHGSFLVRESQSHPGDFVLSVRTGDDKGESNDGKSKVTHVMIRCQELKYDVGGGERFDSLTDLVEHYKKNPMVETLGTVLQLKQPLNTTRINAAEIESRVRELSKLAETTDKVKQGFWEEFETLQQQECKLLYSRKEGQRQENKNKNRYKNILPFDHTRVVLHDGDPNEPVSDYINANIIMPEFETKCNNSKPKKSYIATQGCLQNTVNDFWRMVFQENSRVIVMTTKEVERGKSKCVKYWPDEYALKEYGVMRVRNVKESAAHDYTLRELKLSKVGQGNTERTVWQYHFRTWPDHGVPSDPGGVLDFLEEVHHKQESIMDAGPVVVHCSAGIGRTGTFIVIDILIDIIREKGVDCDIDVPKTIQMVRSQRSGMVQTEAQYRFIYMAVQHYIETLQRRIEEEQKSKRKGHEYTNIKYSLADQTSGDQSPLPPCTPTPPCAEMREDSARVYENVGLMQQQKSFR
Usually IC50 stands for the concentration that gives 50% inhibition. Regarding `CC1(N)CCN(c2ncc(Sc3ccnc(N)c3Cl)c3nncn23)CC1` [Compound 7, 4-{[5-(4-amino-4-methylpiperidin-1-yl)-[1,2,4]triazolo[4,3-c]pyrimidin-8-yl]sulfanyl}-3-chloropyridin-2-amine], the IC50 is 50 to 500 nM.
As for `Cc1nc(N2CCC3(CC2)CO[C@@H](C)[C@H]3N)n2ccnc2c1-c1cccc2c(Cl)c[nH]c12` [Compound 50, (3S,4S)-8-[8-(3-chloro-1H-indol-7-yl)-7-methylimidazo[1,2-c]pyrimidin-5-yl]-3-methyl-2-oxa-8-azaspiro[4.5]decan-4-amine], the IC50 was not above 50 nM.
The compound `Nc1nccc(Sc2cnc(NCCO)n3ccnc23)c1Cl` [Compound 73] yielded an IC50 of more than 500 nM.
Regarding `CNC(=O)O[C@H]1C[C@@H](N)C2(CCN(c3nc(C)c(-c4cccc(Cl)c4Cl)c4nccn34)CC2)C1` [Compound 63, (2R,4R)-4-amino-8-[8-(2,3-dichlorophenyl)-7-methylimidazo[1,2-c]pyrimidin-5-yl]-8-azaspiro[4.5]decan-2-yl N-methylcarbamate], the 50% inhibitory concentration (IC50) is not above 50 nM.
With `C[C@@H]1OCC2(CCN(c3ncc(Sc4ccnc(N5CC(O)C5)c4Cl)c4nccn34)CC2)[C@@H]1N` [Compound 10, 1-[4-({5-[(3S,4S)-4-amino-3-methyl-2-oxa-8-azaspiro[4.5]decan-8-yl]imidazo[1,2-c]pyrimidin-8-yl}sulfanyl)-3-chloropyridin-2-yl]azetidin-3-ol], the IC50 was not above 50 nM.
`C[C@@H]1OCC2(CCN(c3ncc(Sc4ccnc(N)c4)c4nccn34)CC2)[C@@H]1N` [Compound 16, (3S,4S)-8-{8-[(2-aminopyridin-4-yl)sulfanyl]imidazo[1,2-c]pyrimidin-5-yl}-3-methyl-2-oxa-8-azaspiro[4.5]decan-4-amine] returned an IC50 of 50 to 500 nM.
With `C[C@@H]1OCC2(CCN(c3ncc(-c4cccc(Cl)c4Cl)c4nccn34)CC2)[C@@H]1N` [Compound 56, (3S,4S)-8-[8-(2,3-dichlorophenyl)imidazo[1,2-c]pyrimidin-5-yl]-3-methyl-2-oxa-8-azaspiro[4.5]decan-4-amine], the IC50 was not above 50 nM.
Regarding `C[C@H](O)CNc1ncc(Sc2ccnc(N)c2Cl)c2nccn12` [Compound 74], the IC50 was more than 500 nM.
The value for `Cc1nc(N2CCC3(CC2)CO[C@@H](C)[C@H]3N)n2ccnc2c1-c1ccc2[nH]cnc2c1` [Compound 33, (3S,4S)-8-[8-(1H-1,3-benzodiazol-6-yl)-7-methylimidazo[1,2-c]pyrimidin-5-yl]-3-methyl-2-oxa-8-azaspiro[4.5]decan-4-amine] was not above 50 nM; that for `Cc1nc(N2CCC3(CC2)CO[C@@H](C)[C@H]3N)n2ccnc2c1-c1ccc2nccnc2c1Cl` [Compound 41, (3S,4S)-8-[8-(5-chloroquinoxalin-6-yl)-7-methylimidazo[1,2-c]pyrimidin-5-yl]-3-methyl-2-oxa-8-azaspiro[4.5]decan-4-amine] was not above 50 nM; that for `Nc1nccc(Sc2cnc(N[C@H]3CC[C@@H](O)C3)n3ccnc23)c1Cl` [Compound 80] was more than 500 nM.
The value for `Cc1nc(N2CCC3(CC2)CO[C@@H](C)[C@H]3N)n2ccnc2c1-c1cccc(C#N)c1Cl` [Compound 45, 3-{5-[(3S,4S)-4-amino-3-methyl-2-oxa-8-azaspiro[4.5]decan-8-yl]-7-methylimidazo[1,2-c]pyrimidin-8-yl}-2-chlorobenzonitrile] was not above 50 nM; that for `Cc1nc(N2CCC3(CC2)CO[C@@H](C)[C@H]3N)n2ccnc2c1-c1ccc2[nH]ncc2c1` [Compound 39, (3S,4S)-8-[8-(2H-indazol-5-yl)-7-methylimidazo[1,2-c]pyrimidin-5-yl]-3-methyl-2-oxa-8-azaspiro[4.5]decan-4-amine] was not above 50 nM; that for `Cc1nc(N2CCC3(CC2)CO[C@@H](C)[C@H]3N)n2ccnc2c1-c1cc(Cl)cc2cc[nH]c12` [Compound 52, (3S,4S)-8-[8-(5-chloro-1H-indol-7-yl)-7-methylimidazo[1,2-c]pyrimidin-5-yl]-3-methyl-2-oxa-8-azaspiro[4.5]decan-4-amine] was not above 50 nM.
The result for `Nc1nccc(Sc2cnc(N3CCC(c4ncc[nH]4)CC3)n3ccnc23)c1Cl` [Compound 78] reads more than 500 nM.
For `C[C@@H]1OCC2(CCN(c3ncc(Sc4ccnc(N5CC(C#N)C5)c4Cl)c4nccn34)CC2)[C@@H]1N` [Compound 13, 1-[4-({5-[(3S,4S)-4-amino-3-methyl-2-oxa-8-azaspiro[4.5]decan-8-yl]imidazo[1,2-c]pyrimidin-8-yl}sulfanyl)-3-chloropyridin-2-yl]azetidine-3-carbonitrile], the 50% inhibitory concentration (IC50) was not above 50 nM.
For `Cc1cc(Sc2cnc(N3CCC4(CC3)CO[C@@H](C)[C@H]4N)n3ccnc23)cc(N)n1` [Compound 18, (3S,4S)-8-{8-[(2-amino-6-methylpyridin-4-yl)sulfanyl]imidazo[1,2-c]pyrimidin-5-yl}-3-methyl-2-oxa-8-azaspiro[4.5]decan-4-amine], the IC50 is 50 to 500 nM.
Regarding `Cc1nc(N2CCC3(CC2)CO[C@@H](C)[C@H]3N)n2ccnc2c1-c1cccc2nc[nH]c12` [Compound 32, (3S,4S)-8-[8-(1H-1,3-benzodiazol-4-yl)-7-methylimidazo[1,2-c]pyrimidin-5-yl]-3-methyl-2-oxa-8-azaspiro[4.5]decan-4-amine], the IC50 is not above 50 nM.
Regarding `Nc1nccc(Sc2cnc(N3CCC4(CC3)CNC4)n3ccnc23)c1Cl` [Compound 20, 3-chloro-4-[(5-{2,7-diazaspiro[3.5]nonan-7-yl}imidazo[1,2-c]pyrimidin-8-yl)sulfanyl]pyridin-2-amine], the IC50 is 50 to 500 nM.
In the case of `C[C@@H]1OCC2(CCN(c3ncc(-c4ccnc(N)c4Cl)c4nccn34)CC2)[C@@H]1N` [Compound 60, (3S,4S)-8-[8-(2-amino-3-chloropyridin-4-yl)imidazo[1,2-c]pyrimidin-5-yl]-3-methyl-2-oxa-8-azaspiro[4.5]decan-4-amine], the IC50 is more than 500 nM.
`Cc1nc(N2CCC3(CC2)CO[C@@H](C)[C@H]3N)n2ccnc2c1-c1ccn2ccnc2c1` [Compound 51, (3S,4S)-8-(8-imidazo[1,2-a]pyridin-7-yl-7-methyl-imidazo[1,2-c]pyrimidin-5-yl)-3-methyl-2-oxa-8-azaspiro[4.5]decan-4-amine]: the 50% inhibitory concentration (IC50) lay in the range of 50 to 500 nM.
Regarding `Nc1nccc(Sc2cnc(N3C[C@@H]4[C@@H](N)[C@@H]4C3)n3ccnc23)c1Cl` [Compound 25, (1R,5S,6R)-3-{8-[(2-amino-3-chloropyridin-4-yl)sulfanyl]imidazo[1,2-c]pyrimidin-5-yl}-3-azabicyclo[3.1.0]hexan-6-amine], the IC50 lay within 50 to 500 nM.
The compound `Nc1nccc(Sc2cnc(N3CC[C@@H](N)C3)n3ccnc23)c1Cl` [Compound 28, 4-({5-[(3R)-3-aminopyrrolidin-1-yl]imidazo[1,2-c]pyrimidin-8-yl}sulfanyl)-3-chloropyridin-2-amine] returned an IC50 of more than 500 nM.
For `NC(=O)CNc1ncc(Sc2ccnc(N)c2Cl)c2nccn12` [Compound 66, 2-({8-[(2-amino-3-chloropyridin-4-yl)sulfanyl]imidazo[1,2-c]pyrimidin-5-yl}amino)acetamide], the IC50 was more than 500 nM.
The result for `Cc1nc(N2CCC3(CC2)CO[C@@H](C)[C@H]3N)n2ccnc2c1-c1ccc2c(c1Cl)OCCC2` [Compound 43, (3S,4S)-8-[8-(8-chloro-3,4-dihydro-2H-1-benzopyran-7-yl)-7-methylimidazo[1,2-c]pyrimidin-5-yl]-3-methyl-2-oxa-8-azaspiro[4.5]decan-4-amine] reads not above 50 nM.

The values are drawn from US11673901B2, “Polycyclic compounds as allosteric SHP2 inhibitors” (Revolution Medicines, Inc., priority 2017, dated 2023).
